Laboratory results taken from PubChem BioAssay (NCI).
Several values for one entry are separate records, joined by “and”; a condition that tells them apart may be missing. Equal values may be shown once.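 Protocol summary: plate cells (96-well), add compound at 5 concentrations, incubate 48 h, interpolate endpoints linearly. Here, GI50 denotes the concentration required for 50% inhibition of growth. TGI: total growth inhibition.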

What was measured:
Assay in all cases: NCI tumour cell line growth inhibition, 48 h
[1] = system: SF-268 CNS
[2] = system: RPMI-8226 leukemia
[3] = system: HCC-2998 colon
[4] = system: BT-549 breast
[5] = system: NCI-H226 lung
[6] = system: U251 CNS
[7] = system: NCI/ADR-RES ovarian
[8] = system: NCI-H522 lung
[9] = system: MDA-MB-435
[10] = system: IGROV1 ovarian

Row | SMILES | GI50 [1] [µM] | TGI [1] | GI50 [2] [µM] | TGI [2] [µM] | GI50 [3] [µM] | TGI [3] [µM] | GI50 [4] | TGI [4] | GI50 [5] [µM] | TGI [5] [µM] | GI50 [6] [µM] | TGI [6] [µM] | GI50 [7] [µM] | TGI [7] | GI50 [8] [µM] | TGI [8] [µM] | GI50 [9] [µM] | TGI [9] [µM] | TGI [10] [µM] | GI50 [10]
1 | CN(C)CCN1C(=O)c2cccc3c(N)ccc(c23)C1=O | 15 | > 25 µM | 7.71 | > 25 | 17.8 | > 25 | > 25 µM | > 25 µM | 7.69 | > 25 | 10.7 | > 25 | 16.9 | > 25 µM | 7.12 | > 25 | 11.1 | > 25 | – | –
2 | Cc1ccc(/C=N/NS(=O)(=O)c2ccccc2)cc1 | – | > 100 µM | – | > 100 | – | > 100 | – | – | – | > 100 | – | > 100 | – | – | – | – | – | – | > 100 | –
3 | CCN1CCC2(CC1)NC(=O)c1c(c3ccc(Cl)c(Cl)c3n1C)C2C#N (stereo not drawn) | – | – | 1.55 | 4.59 | 1.73 | 3.26 | 3.61 µM | 15.2 µM | 5.67 | 23.7 | 2.83 | 12 | 3.6 | 13.6 µM | 5.81 | 21.7 | 1.93 | 3.77 | 8.97 | 3.11 µM
4 | Nc1c(S(=O)(=O)O)cc(Nc2cccc(S(N)(=O)=O)c2)c2c1C(=O)c1ccccc1C2=O | – | > 100 µM | – | > 100 | – | – | – | > 100 µM | – | > 100 | – | > 100 | – | > 100 µM | – | > 100 | – | 32.6 | > 100 | –
5 | C/C(=C1/N=C(c2ccccc2)OC1=O)c1ccc(C)cc1 | – | > 100 µM | – | > 100 | – | > 100 | – | > 100 µM | – | > 100 | – | > 100 | – | – | – | > 100 | – | > 100 | > 100 | –
6 | COC1=C(C)C(=O)C2=C(C1=O)C(CO)N1C(C#N)C3CC4C(C1C2N1CCOC41)N3C (stereo not drawn) | – | 0.94 µM and 0.408 µM and 1.98 µM | 0.0177 | – | 0.00395 | – | 0.00373 µM and 0.0232 µM and < 0.01 µM | 0.00951 µM and 0.0873 µM and < 0.0111 µM | – | – | – | – | – | 0.45 µM and 0.182 µM | – | – | – | – | – | 0.00217 µM and 0.0216 µM
7 | O=C(O)c1c([N+](=O)[O-])cc(C(F)(F)F)cc1[N+](=O)[O-] | – | > 100 µM | – | > 100 | – | – | – | – | – | > 100 | – | > 100 | – | – | – | > 100 | – | – | > 100 | –
8 | Clc1ccccc1C1N2CCCCC2[C@@H]2c3[nH]c4ccccc4c3CCN12 (stereo partly drawn) | – | 38.4 µM | – | 66.6 | – | 36.9 | – | – | – | – | – | 31.9 | – | – | – | – | – | – | > 100 | –
9 | C/C=C/C(=O)[C@@H](O)C(C)C | – | > 100 µM | – | > 100 | – | > 100 | – | – | – | > 100 | – | > 100 | – | – | – | > 100 | – | – | > 100 | –
10 | CN(C)C(=S)/N=c1\ssc(=S)n1-c1ccccc1 | – | 32.8 µM | – | – | – | 46.3 | – | – | – | 26.9 | – | 30.2 | – | – | – | 27.8 | – | – | 39.1 | –
11 | C=CCC(N[C@@H](CO)c1ccccc1)c1ccccn1 (stereo partly drawn) | – | – | 32.7 | > 100 | > 100 | > 100 | > 100 µM | > 100 µM | > 100 | > 100 | > 100 | > 100 | > 100 | > 100 µM | 25.8 | > 100 | > 100 | > 100 | > 100 | > 100 µM
12 | O=C1NC2(CCCC2)/C(=N\O)C12CCCC2 | – | > 100 µM | – | – | – | – | – | – | – | – | – | > 100 | – | – | – | > 100 | – | – | > 100 | –
